For series [1], the system named is HUH7 human HCC xenografts. The series is classed as in vivo. The settings on record: 21 days, HUH7 xenograft. The method, then:
12 days after the injection of tumor cells the tumor volumes are 138±24 mm^3.
Each group contains 8 animals. […] The application volumes in all experiments were 10 ml/kg.

In series [2] the test system is PLC/PFR/5 human HCC xenografts. As to the kind of experiment: PLC/PFR/5 human HCC subcutaneous xenograft in female nude mice. The settings on record: 24 days; for % T/C (ΔT/ΔC %, tumor volume): PLC/PFR/5 xenograft.
A further series deals with unresectable HCC. The following applies: 1st line treatment, patients with unresectable HCC; cited from earlier work.
For the next series, the system named is HCC. The following applies: HCC patients of Asia-Pacific region; cited from earlier work.
The mark [3] stands for this setting: 50 mg/kg p.o. qd, statistically significant.

SMILES strings stand for the structures. Read-outs that look alike come from different tables or passages of the source.

As to `CN1CCN(c2ccc3nc(-c4c(N)c5c(F)cccc5[nH]c4=O)[nH]c3c2)CC1` [Compound I, 4-amino-5-fluoro-3-[6-(4-methylpiperazin-1-yl)-1H-benzimidazol-2-yl]-1H-quinolin-2-one], the “% T/C (ΔT/ΔC %, tumor volume)” value in series [1] (10 mg/kg p.o. qd) turned out to be 75%; in series [1] (30 mg/kg p.o. qd, statistically significant), 40%; in series [1] (setting [3]), 20%; in series [2] (10 mg/kg p.o. qd) it was 67%; in series [2] (30 mg/kg p.o. qd) it was 47%; in series [2] (setting [3]) it was 19%. In series [2] (10, 30 and 50 mg/kg p.o. qd), the “effect on body weight as compared to the vehicle-treated group” value is reported as “no significant effect on body weight”.

`CNC(=O)c1cc(Oc2ccc(NC(=O)Nc3ccc(Cl)c(C(F)(F)F)c3)cc2)ccn1` [sorafenib]: the results for the median overall survival with unresectable HCC and in the series with HCC were 10.7 months and 6.5 months, respectively.

The values above are taken from patent US8741903B2, “Organic compound for use in the treatment of hepatocellular cancer (HCC)” (priority 2010, dated 2014).
